Where two headings read alike, the source gives them in different places.
Molecular target: T1, epithelial sodium channel (ENaC) (Mus musculus, UniProt Q61180+Q9WU38+Q9WU39)
T1 construct: Mouse kidney M-1 cells were cultivated in DMEM; endogenous in cells; host or cells: mouse kidney M-1 cells (cortical collecting duct line), dexamethasone-treated, on transwell filters
T1 sequence (Q61180 1-699): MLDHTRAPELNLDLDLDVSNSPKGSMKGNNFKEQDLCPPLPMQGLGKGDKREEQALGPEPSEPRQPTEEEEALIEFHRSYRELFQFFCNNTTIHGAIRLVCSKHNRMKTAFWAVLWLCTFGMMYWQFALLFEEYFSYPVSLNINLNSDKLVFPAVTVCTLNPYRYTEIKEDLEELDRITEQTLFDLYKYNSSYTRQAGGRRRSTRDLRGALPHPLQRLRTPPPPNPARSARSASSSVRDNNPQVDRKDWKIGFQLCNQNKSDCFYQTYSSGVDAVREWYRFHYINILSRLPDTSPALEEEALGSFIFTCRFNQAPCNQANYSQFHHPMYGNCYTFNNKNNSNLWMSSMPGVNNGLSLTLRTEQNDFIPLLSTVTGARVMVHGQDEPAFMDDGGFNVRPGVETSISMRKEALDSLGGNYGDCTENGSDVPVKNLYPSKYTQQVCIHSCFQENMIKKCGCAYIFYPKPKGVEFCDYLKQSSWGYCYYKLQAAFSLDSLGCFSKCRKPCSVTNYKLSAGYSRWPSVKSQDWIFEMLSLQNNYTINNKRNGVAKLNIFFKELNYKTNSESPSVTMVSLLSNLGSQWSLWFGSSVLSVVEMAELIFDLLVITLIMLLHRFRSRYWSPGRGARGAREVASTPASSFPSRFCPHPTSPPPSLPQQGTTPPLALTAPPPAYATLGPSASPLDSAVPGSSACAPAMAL
T1 sequence (Q9WU38 1-638): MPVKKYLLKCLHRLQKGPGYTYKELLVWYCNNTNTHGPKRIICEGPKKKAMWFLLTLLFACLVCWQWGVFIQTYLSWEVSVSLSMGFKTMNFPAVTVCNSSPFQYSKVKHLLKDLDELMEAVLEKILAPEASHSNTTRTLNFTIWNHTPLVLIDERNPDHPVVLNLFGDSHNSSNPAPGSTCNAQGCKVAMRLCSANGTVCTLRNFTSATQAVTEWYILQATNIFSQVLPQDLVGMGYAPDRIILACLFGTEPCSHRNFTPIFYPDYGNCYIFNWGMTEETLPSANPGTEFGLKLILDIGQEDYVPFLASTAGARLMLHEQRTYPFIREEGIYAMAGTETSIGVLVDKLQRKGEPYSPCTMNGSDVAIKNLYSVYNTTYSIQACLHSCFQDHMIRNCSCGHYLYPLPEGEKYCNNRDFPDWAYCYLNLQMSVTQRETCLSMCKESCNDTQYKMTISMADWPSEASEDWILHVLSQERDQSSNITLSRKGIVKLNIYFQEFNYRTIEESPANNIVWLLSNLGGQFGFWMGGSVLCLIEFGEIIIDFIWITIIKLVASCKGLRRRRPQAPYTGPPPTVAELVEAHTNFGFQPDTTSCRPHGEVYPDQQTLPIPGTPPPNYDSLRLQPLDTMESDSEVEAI
T1 sequence (Q9WU39 1-655): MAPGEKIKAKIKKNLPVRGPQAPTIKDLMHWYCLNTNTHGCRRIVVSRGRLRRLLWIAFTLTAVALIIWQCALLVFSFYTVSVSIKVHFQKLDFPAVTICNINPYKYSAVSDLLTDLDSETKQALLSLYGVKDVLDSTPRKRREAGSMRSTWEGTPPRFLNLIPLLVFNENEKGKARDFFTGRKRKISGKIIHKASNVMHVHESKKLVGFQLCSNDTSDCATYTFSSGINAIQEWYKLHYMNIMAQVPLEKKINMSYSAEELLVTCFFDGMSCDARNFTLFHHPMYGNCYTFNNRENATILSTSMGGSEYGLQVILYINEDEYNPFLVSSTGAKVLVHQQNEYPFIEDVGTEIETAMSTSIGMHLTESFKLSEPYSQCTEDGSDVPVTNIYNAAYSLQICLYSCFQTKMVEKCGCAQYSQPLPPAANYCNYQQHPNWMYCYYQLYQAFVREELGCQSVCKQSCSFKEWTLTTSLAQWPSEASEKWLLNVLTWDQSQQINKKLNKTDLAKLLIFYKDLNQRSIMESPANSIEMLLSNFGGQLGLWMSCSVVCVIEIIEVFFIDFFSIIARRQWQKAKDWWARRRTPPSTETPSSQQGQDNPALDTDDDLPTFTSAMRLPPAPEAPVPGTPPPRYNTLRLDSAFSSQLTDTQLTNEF
Assay: Ussing Chamber assay: inhibition of amiloride sensitive short circuit current (I_sc) in M-1 cells
Type: cell-based
Experimental: Ussing Chamber: Mouse kidney M-1 cells were cultivated in DMEM containing 5% FCS and 5 μM dexamethasone for 10 to 12 days on polyester transwell filters. Filters were inserted into a teflon-coated well-plate which fit into the in-house ussing chamber system. Prior to measurement the medium of M-1 cells was replaced with Caco-2 transport buffer (Invitrogen, Germany). During measurements, the Ussing chamber temperature was kept at 37° C. Short circuit currents (I_sc) were measured in the voltage-clamp mode using an in-house built amplifier (Boehringer Ingelheim, Biberach) with the software package Lab View for data acquisition and analysis. The transepithelial electrical resistance (TEER) was determined by the application of voltage steps of ±5 mV every 5 sec. Compounds were administered at a final concentration of 3 μM or at increasing concentrations (e.g. 1-3-10 μM) to the apical solution. At the end of each experiment the amiloride sensitive I_SC was measured by adding 3 μM amiloride to the apical compartment. Results are expressed as inhibition in percent of the amiloride effect or as IC50.
With the example compounds given above, the following IC50 values were determined in the Ussing Chamber assay: […]

[1] = Ussing Chamber, mouse kidney M-1 cells on transwell filters, short circuit current, compound added to apical solution, 37° C., read-out: IC50

Row | SMILES | IC50 [1] [nM] | IC50 [nM]
1 | CCOC(=O)CN1CCC(NC(N)=NC(=O)c2nc(Cl)c(N)nc2N)CC1 [Example 4.6] | 7 | –
2 | NC(=NC(=O)c1nc(Cl)c(N)nc1N)NC1CCN(CC(=O)NC2CN3CCC2CC3)CC1 (stereo not drawn) [Example 1.32] | 13 | –
3 | COC(=O)CCCN1CCC(NC(N)=NC(=O)c2nc(Cl)c(N)nc2N)CC1 [Example 4.8] | 27 | –
4 | CCNC(=O)CN1CCC(NC(N)=NC(=O)c2nc(Cl)c(N)nc2N)CC1 [Example 1.33] | 5 | –
5 | CCOC(=O)CNC(=O)CN1CCC(NC(N)=NC(=O)c2nc(Cl)c(N)nc2N)CC1 [Example 4.4] | 11 | –
6 | CCN1CCC(NC(N)=NC(=O)c2nc(Cl)c(N)nc2N)CC1 [Example 4.14] | 53 | –
7 | CN(C)CCNC(=O)c1ccccc1NC(=O)CN1CCC(NC(=N)NC(=O)c2nc(Cl)c(N)nc2N)CC1 [Example 3.1] | 19 | –
8 | NC(=NC(=O)c1nc(Cl)c(N)nc1N)NC1CCN(CC(=O)OCc2ccccc2)CC1 [Example 4.9] | 6 | –
9 | NC(=NC(=O)c1nc(Cl)c(N)nc1N)NC1CCN(CC(=O)N2CCSCC2)CC1 [Example 4.15] | 12 | –
10 | NC(=NC(=O)c1nc(Cl)c(N)nc1N)NC1CCN(CC(=O)NC2CCSCC2)CC1 [Example 1.31] | 2 | –
11 | NC(=NC(=O)c1nc(Cl)c(N)nc1N)NC1CCN(CC(=O)NCCCn2ccnc2)CC1 [Example 1.24] | 7 | –
12 | NC(=NC(=O)c1nc(Cl)c(N)nc1N)NC1CCN(CC(=O)NC2CCOCC2)CC1 [Example 1.29] | 8 | –
13 | CN(C)CCN(C)S(=O)(=O)c1ccc(NC(=O)CN2CCC(NC(N)=NC(=O)c3nc(Cl)c(N)nc3N)CC2)cc1 [Example 1.11] | 1 | –
14 | CCS(=O)(=O)CCN1CCC(NC(N)=NC(=O)c2nc(Cl)c(N)nc2N)CC1 [Example 4.3] | 10 | –
15 | NC(=NC(=O)c1nc(Cl)c(N)nc1N)NC1CCN(CC2CCCC2)CC1 [Example 4.13] | 30 | –
16 | NC(=NC(=O)c1nc(Cl)c(N)nc1N)NC1CCN(CC(=O)Nc2cccc(C(=O)O)c2)CC1 [Example 2.2] | 31 | –
17 | CCN(CC)C(=O)CN1CCC(NC(N)=NC(=O)c2nc(Cl)c(N)nc2N)CC1 [Example 4.5] | 36 | –

Row | SMILES | IC50 [1] [nM] | IC50 [nM]
18 | CCOC(=O)c1cccc(CCNC(=O)CN2CCC(NC(N)=NC(=O)c3nc(Cl)c(N)nc3N)CC2)c1 [Example 1.34] | 4 | –
19 | CC(=O)N(CCCN(C)C)c1ccc(NC(=O)CN2CCC(NC(N)=NC(=O)c3nc(Cl)c(N)nc3N)CC2)cc1 [Example 1.10] | 1 | –
20 | CN1CCC(CN2CCC(NC(N)=NC(=O)c3nc(Cl)c(N)nc3N)CC2)CC1 [Example 4.17] | 72 | –
21 | CN(Cc1ccccc1)C(=O)CN1CCC(NC(N)=NC(=O)c2nc(Cl)c(N)nc2N)CC1 [Example 1.21] | 18 | –
22 | CCSCCNC(=O)CN1CCC(NC(N)=NC(=O)c2nc(Cl)c(N)nc2N)CC1 [Example 1.30] | 2 | –
23 | NC(=NC(=O)c1nc(Cl)c(N)nc1N)NC1CCN(CC(=O)Nc2cccnc2)CC1 [Example 1.17] | 7 | –
24 | NC(=NC(=O)c1nc(Cl)c(N)nc1N)NC1CCN(CC(=O)Nc2cccc(S(=O)(=O)O)c2)CC1 [Example 1.20] | 17 | –
25 | NC(=NC(=O)c1nc(Cl)c(N)nc1N)NC1CCN(CCN2CCOCC2)CC1 [Example 4.7] | 30 | –
26 | CN1CCC(N(C)C(=O)c2ccc(NC(=O)CN3CCC(NC(N)=NC(=O)c4nc(Cl)c(N)nc4N)CC3)cc2)CC1 [Example 1.5] | 6 | –
27 | CCCCOC(=O)CN1CCC(NC(N)=NC(=O)c2nc(Cl)c(N)nc2N)CC1 [Example 4.10] | 4 | –
28 | CCOP(=O)(CN1CCC(NC(N)=NC(=O)c2nc(Cl)c(N)nc2N)CC1)OCC [Example 4.16] | – | 19
29 | Cn1ccc(NC(=O)CN2CCC(NC(N)=NC(=O)c3nc(Cl)c(N)nc3N)CC2)cc1=O [Example 1.15] | 4 | –
30 | NC(=NC(=O)c1nc(Cl)c(N)nc1N)NC1CCN(CC(=O)Nc2ccc(CN3CCCCC3)cc2)CC1 [Example 1.8] | 1 | –
31 | NC(=NC(=O)c1nc(Cl)c(N)nc1N)NC1CCN(CC(=O)NCc2ccccc2)CC1 [Example 1.23] | 3 | –
32 | NC(=NC(=O)c1nc(Cl)c(N)nc1N)NC1CCN(CC(=O)Nc2ccc(S(N)(=O)=O)cc2)CC1 [Example 1.4] | 2 | –
33 | NC(=NC(=O)c1nc(Cl)c(N)nc1N)NC1CCN(C(C(=O)NCc2ccccc2)C(=O)NCc2ccccc2)CC1 [Example 4.20] | 10 | –
34 | CCN(CC)CCOc1ccc(NC(=O)CN2CCC(NC(N)=NC(=O)c3nc(Cl)c(N)nc3N)CC2)cc1 [Example 1.12] | 2 | –

Further lines, with some results ahead:

Row | IC50 [1] [nM] | SMILES | IC50 [nM]
35 | 8 | NC(=O)c1cccc(CNC(=O)CN2CCC(NC(N)=NC(=O)c3nc(Cl)c(N)nc3N)CC2)c1 [Example 6.9] | –
36 | 169 | NC(=NC(=O)c1nc(Cl)c(N)nc1N)NC1CCN(CCCC(=O)O)CC1 [Example 5.3] | –
37 | 5 | COc1ccc(CNC(=O)CN2CCC(N/C(N)=N/C(=O)c3nc(Cl)c(N)nc3N)CC2)cc1 [Example 6.1] | –
38 | 35 | N#CCN1CCC(NC(=N)NC(=O)c2nc(Cl)c(N)nc2N)CC1 [Example 7.1] | –
39 | 2 | COCCNC(=O)CN1CCC(NC(N)=NC(=O)c2nc(Cl)c(N)nc2N)CC1 [Example 6.12] | –
40 | 27 | COCCN(CCOC)C(=O)CN1CCC(NC(N)=NC(=O)c2nc(Cl)c(N)nc2N)CC1 [Example 6.2] | –
41 | 3 | COC(=O)c1ccc(CNC(=O)CN2CCC(NC(N)=NC(=O)c3nc(Cl)c(N)nc3N)CC2)cc1 [Example 6.4] | –
42 | 5 | NC(=O)c1ccc(CNC(=O)CN2CCC(NC(N)=NC(=O)c3nc(Cl)c(N)nc3N)CC2)cc1 [Example 6.8] | –
43 | 4 | CC(C)(C)NC(=O)CN1CCC(NC(N)=NC(=O)c2nc(Cl)c(N)nc2N)CC1 [Example 4.22] | –
44 | 266 | N=C(NC(=O)c1nc(Cl)c(N)nc1N)NC1CCN(CC(=O)O)CC1 [Example 5.1] | –
45 | 80 | NC(=NC(=O)c1nc(Cl)c(N)nc1N)NC1CCN(CC(=O)NCC(=O)O)CC1 [Example 5.2] | –
46 | 3 | CN1CCN(c2cccc(CNC(=O)CN3CCC(NC(N)=NC(=O)c4nc(Cl)c(N)nc4N)CC3)c2)CC1 [Example 6.10] | –
47 | 3 | NC(=NC(=O)c1nc(Cl)c(N)nc1N)NC1CCN(CC(=O)NCc2ccc(N3CCNC3=O)cc2)CC1 [Example 6.13] | –
48 | 3 | NC(=NC(=O)c1nc(Cl)c(N)nc1N)NC1CCN(CC(=O)NCc2nccs2)CC1 [Example 6.11] | –

Reference: patent publication US9078909B2, “Tertiary amines, medicaments containing said amines, use thereof and processes for the preparation thereof” (Boehringer Ingelheim International GmbH, priority 2012, dated 2015)
